Laboratory results: US20230338369A1, “COMBINATION OF A PROTEASOME INHIBITOR AND A HDAC INHIBITOR AND ITS USE FOR THE TREATMENT OF GENETIC DISEASES LINKED TO A PROTEIN CONFORMATIONAL DISORDER” (Centre d'Etude des Cellules Souches (CECS), priority 2019, published 2023)
Where two headings read alike, the source gives them in different places. Peptide text beside a SMILES is read from it. * marks the point of attachment. Cbz = O=C(OCc1ccccc1)*

Experiments:
[1] = target: T1, chymotrypsin-like activity of the proteasome (Homo sapiens, UniProt P28074); assay: Proteasomal activity assay (Proteasome-Glo chymotrypsin-like cell-based assay); details: for chymotrypsin-like activity of the proteasome: increasing concentrations
T1 construct: endogenous in cells; host or cells: immortalized patient fibroblasts overexpressing R77C-α-SGmCh
Experimental: Fibroblasts were seeded in 384 well plates and treated with tested combinations as indicated for 12 hours. Proteasome-Glo™ or chymotrypsin-like cell-based assay reagents were added according to manufacturer instructions (Promega). Luminescence was read using a CLARIOstar® microplate reader (BMG Labtech).

[2] = test system: ubiquitinated proteins, P62, LC3BI/II, acetylated α-tubulin, α-SG; assay: Immunoblotting of fibroblasts overexpressing R77C-α-SGmCh; type: cell-based, human; details: 24 hours; for ubiquitinated proteins (Western blot): 10 μM in combination with 5 nM BTZ
Experimental: (B) Western Blot analysis of ubiquitinated proteins (top panel), P62 and LC3BI/II (middle panel) and acetylated α-tubulin (bottom panel) expression in fibroblasts overexpressing R77C-α-SGmCh and treated with DMSO 0.1%, BTZ (5 nM or 30 nM), or givinostat (10 μM) in presence or in absence of 5 nM BTZ for 24 hours.
(D) Western Blot analysis of ubiquitinated proteins (middle panel), α-SG (top panel) and acetylated α-tubulin (bottom panel) expression in fibroblasts overexpressing R77C-α-SGmCh and treated with DMSO 0.1%, BTZ (5 nM or 30 nM), or tubacin (10 μM) in presence or in absence of 5 nM BTZ for 24 hours.
Twenty-four hours after seeding, the immortalized fibroblasts expressing R77C-α-SGmCh were incubated with the tested compounds or the carrier. Cells were collected after 24 hours of treatment. Proteins were extracted by cell lysis buffer (NP40 Buffer, Thermo Scientific) and Proteases Inhibitors (Complete PIC, Roche). Proteins were separated using a 3-8% Criterion™ XT tris-acetate protein gel and then transferred to PVDF membrane with a Trans-Blot Turbo Transfert system (Biorad) using the 7 min/25V program. Detection of proteins was performed using standard Odyssey protocol by incubation with the following antibodies: • Ubiquitinated proteins: Merck, 04-263; • acetylated α-tubulin: Sigma, T6793; • P62: Abcam, ab56416; • LC3BI/II: Novus, NB600-1384.

[3] = test system: R77C-α-SGmCh; assay: SG localization cell-based assay: membrane rescue of R77C-α-SGmCh in immortalized LGMD-R3 patient fibroblasts; set-up: species or system human; details: for EC50: read-out: EC50, presence of R77C-α-SGmCh at the membrane; for effect on R77C-α-SGmCh mutant protein rescue in combination with givinostat: low doses: carfilzomib 10 nM, MG132 100 nM, increasing concentrations of givinostat
Experimental: Cells were analyzed after 24 hours of treatment.
In order to easily evaluate the membrane localization of the R77C-α-SG mutant in the heterologous condition, a system was generated that allowed the simultaneous identification of the positive cells for the exogenous protein and the quantification of the amount of protein in the cell membrane. A fusion protein was created, consisting of the coding sequence for human R77C-α-SGfused with an mCherry (mCh) fluorescent reporter at the C-terminus. A flexible linker was inserted between the two coding sequences to avoid protein interference in protein maturation and folding. The construct, hereafter termed R77C-α-SGmCh, was placed under the transcriptional control of the cytomegalovirus (CMV) promoter and inserted into a lentivirus backbone. Immortalized fibroblasts from a LGMD-R3 patient were used as cellular model because of their absence of endogenous α-SG.

[4] = test system: fibroblasts overexpressing R77C-α-SGmCh; assay: Viability test: count of Hoechst stained cells per field; details: increasing concentrations alone or in combination with 5 nM BTZ
Experimental: For overexpression of mutated α-SG and γ-SG, immortalized fibroblasts were transduced with a lentiviral vector expressing human R77C-α-SGmCh, C283Y-γ-SGmCh or E263K-γ-SGmCh with a multiplicity of infection (MOI) of 20 in the presence of 4 μg/ml of polybrene (Sigma-Aldrich). Cells were seeded on plates coated with 50 μg/ml of collagen I and maintained in a humidified atmosphere of 5% CO2 at 37-C. […] Cells were analyzed after 24 hours of treatment.
After 24 hours of drug treatment, cells were fixed in 4% paraformaldehyde (10 min, room temperature). Immunocytochemistry was performed in a phosphate-buffered saline (PBS) solution supplemented with 1% bovine serum albumin (BSA; Sigma) for blocking (1 hour, room temperature) and with a mouse anti-α-SG (NCL-L-a-SARC, Novocastra, Leica) or anti-γ-SG (NCL-L-g-SARC, Novocastra, Leica) for primary hybridization step (overnight, 4° C.). Cells were stained with a fluorophore-conjugated secondary anti-mouse antibody (Invitrogen; 1 hour, room temperature) and nuclei were visualized with Hoechst 33342 (Invitrogen). SG localization was analyzed with a CellInsight CX7 HCS Platform (Cellomics Inc). […] Pictures were acquired with a 10× objective in high-resolution camera mode and were analyzed using the colocalization bioapplication. The number of cells was monitored by counting Hoechst stained cells per field allowing quantification of the cell viability.

[5] = 10 μM with addition of 5 nM BTZ
[6] = combined treatment with 5 nM BTZ

Compound	chymotrypsin-like activity of the proteasome [1]	ubiquitinated proteins (Western blot) [2]	R77C-α-SGmCh membrane rescue (α-SG staining) ([3]; 10 μM alone)	R77C-α-SGmCh membrane rescue (α-SG staining) [3, 5]	EC50 [3, 6] [nM]	EC50 ([3]; treatment alone) [nM]	effect on R77C-α-SGmCh mutant protein rescue in combination with givinostat [3]	further results
CCN(CC)Cc1ccc2cc(COC(=O)Nc3ccc(C(=O)NO)cc3)ccc2c1 [givinostat, Givinostat]	no proteasomal inhibition	synergistic accumulation of ubiquitinated proteins	low effect	diffuse α-SG staining suggesting a synergy with BTZ	800	3000		acetylation of α-tubulin (Western blot) ([2]; 10 μM alone or in combination with 5 nM BTZ): induces the acetylation of α-tubulin; LC3B-I to LC3B-II conversion and P62 (Western blot) ([2]; 10 μM combined with 5 nM BTZ): increasing conversion of LC3B-I to LC3B-II with P62 accumulation
O=C(/C=C/c1cccc(S(=O)(=O)Nc2ccccc2)c1)NO [belinostat]	no proteasomal inhibition		low effect	diffuse α-SG staining suggesting a synergy with BTZ	300	5300		
CC(C)C[C@@H](C=O)NC(=O)[C@H](CC(C)C)NC(=O)[C@H](CC(C)C)NC(=O)OCc1ccccc1 [MG132] (Cbz-Leu-Leu-Leu-aldehyde)							synergistic effect	
O=C(CCCCCCC(=O)Nc1ccc([C@H]2O[C@@H](CSc3nc(-c4ccccc4)c(-c4ccccc4)o3)C[C@@H](c3ccc(CO)cc3)O2)cc1)NO [tubacin, Tubacin]		synergistic accumulation of ubiquitinated proteins						cell toxicity [4]: in the same range than givinostat; acetylation of α-tubulin (Western blot) ([2]; 10 μM combined with 5 nM BTZ): acetylation of a-tubulin; α-SG protein levels (Western blot) ([2]; 10 μM combined with 5 nM BTZ): increased α-SG protein levels; membrane R77C-α-SGmCh expression ([3]; in combination with 5 nM BTZ): synergistic effect; membrane R77C-α-SGmCh expression ([3]; increasing concentrations, alone): induced a dose-response curve
CC(C)C[C@H](NC(=O)[C@H](Cc1ccccc1)NC(=O)c1cnccn1)B(O)O [bortezomib]								inhibition of the proteasome activity ([1]; 5 nM BTZ): limited inhibition; R77C-α-SG degradation rescue ([3]; 5 nM BTZ): rescuing partially; R77C-α-SG localization in the plasma membrane ([3]; 30 nM, 24 hours, non-permeabilized condition): rescue of R77C-α-SG localization in the plasma membrane
CC(C)C[C@H](NC(=O)[C@H](CCc1ccccc1)NC(=O)CN1CCOCC1)C(=O)N[C@@H](Cc1ccccc1)C(=O)N[C@@H](CC(C)C)C(=O)[C@@]1(C)CO1 [carfilzomib]							synergistic effect	
